Here are results for three molecules from US20250163072A1, “MACROCYCLIC COMPOUNDS FOR THE TREATMENT OF CANCER” (Hoffmann-La Roche Inc., priority 2021, published 2025).

The structures appear in SMILES notation. Read-outs that look alike come from different tables or passages of the source. Bounds are passed on as bounds.

Data set [1] in a line: GSH reaction rates (inherent GSH reactivity). In kind it is in vitro ADME. The method in brief: (§1)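 Compounds at 1 μM were incubated at 37° C with or without 5 mM GSH in 100 mM potassium phosphate pH 7.4 for 0-6 h. Samples were quenched with acetonitrile/N-ethylmaleimide and the remaining compound quantified by LC-MS/MS to derive T1/2.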
A further data set relates to GSH. Kind of data set: GSH reaction rates (inherent GSH reactivity). In kind it is in vitro ADME. Conditions: buffer, pH 7.4. The method in brief: as §1
In data set [2] the test system is KRAS G12C in NCI-H358 cells. Kind of data set: pERK inhibition assay, NCI-H358. Conditions: 4 hours incubation. In kind it is cell-based, human. The method in brief:
(§2)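 NCI-H358, AGS and SW620 cells in RPMI-1640/10% FBS were plated overnight, then exposed to compound (0.5% DMSO final) for 4 h. After fixation and permeabilization, phospho-ERK was quantified by in-cell ELISA (HRP secondary, TMB, OD450); IC50 from a 4-parameter sigmoidal fit.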

The test system of another data set is KRAS G12D in AGS cells. As to the kind of experiment: pERK inhibition assay, AGS. Conditions: 4 hours incubation. In kind it is cell-based, human. In a few lines: as §2
In another data set the test system is KRAS G12V in SW620. Kind of data set: pERK inhibition assay, SW620. The data set is classed as cell-based, human. To be noted: 4 hours incubation. The method in brief:
as §2

Another data set deals with NCI-H358 cells. As to the kind of experiment: Cell viability assay, NCI-H358. The data set is classed as cell-based, human. To be noted: NCI-H358, 72 hours, Cell Counting Kit-8, read-out: G12C IC50. In a few lines:
(§3)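 Cells were plated at 5,000 (NCI-H358) or 2,000 (AGS, SW620) per well and incubated overnight. They were then treated with compound in 0.5% DMSO for 72 h. Viability was read with CCK-8 as OD450 minus OD650 after 2 h, and IC50 came from a 4-parameter sigmoidal fit.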
(Formazan colour is commonly taken as a measure of viable cells.)

Another data set relates to AGS cells. As to the kind of experiment: Cell viability assay, AGS. The data set is classed as cell-based, human. Conditions: 72 hours, Cell Counting Kit-8, read-out: G12D IC50. The method in brief:
as §3

A further data set deals with SW620 cells. Kind of data set: Cell viability assay, SW620. In kind it is cell-based, human. To be noted: Cell Counting Kit-8, read-out: G12V IC50. The method in brief:
as §3

Data set [3] in a line: Human hepatocytes stability assay. In kind it is in vitro ADME. To be noted: for CL_hep (Human): 1 μM compound, human hepatocytes 1×10^6 cells/mL. In a few lines: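 Compound at 1 μM incubated with cryopreserved suspension hepatocytes (1×10^6 cells/mL) in supplemented Williams' E Medium at 37° C, 5% CO2, with shaking. Reactions quenched with methanol at 2, 10, 20, 40, 60 and 120 min; parent depletion followed by LC-MS/MS.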

Data set [4] has as its target T1, KRAS G12C-BRAF complex (Homo sapiens (Human), UniProt P01116+P62937, G12C). As to the kind of experiment: KRAS G12C-BRAF NanoBit assay. In kind it is cell-based. Conditions: HEK293 cells, SmBit-KRAS G12C and BRAF RBD-LgBit, 3 hours incubation. As for the experimental part:
This assay is to measure the ability of tested compounds in disruption of the KRAS G12C-BRAF complex at the cellular level, we established the NanoBit cellular assay in mammalian HEK293 (ATCC) cells. HEK293 cells were grown and maintained using DMEM medium (Thermo Fisher Scientific) with 10% fetal bovine serum and 1% penicillin/streptomycin. Both KRAS G12C and BRAF RBD were cloned into the NanoBit vectors ([…] vectors system, Promega) with the orientations SmBit-KRAS G12C and BRAF RBD-LgBit, respectively, and co-transfected into HEK293 cells. Cells were then selected with 100 μg/mL Hygromycin B (10687010, Thermo Fisher) and Blasticidin (5 μg/mL) for 4 weeks to get the stable cell pool. On the day of the assay, 75 nL of compound solution was presented in a 384-well assay plate as a 16-point 3-fold dilution starting from a final concentration of 30 μM in DMSO. Then cells were seeded at 10,000 cells/25 μL/well in a 384-well plate. After 3 hours of incubation, 6 μL of volume of Nano-Glo® Live Cell Substrate (Promega) was added into each well. Monitor luminescence using ultra384 model in Envision at 20 minutes. Compounds that facilitate disruption of the KRAS G12C-BRAF RBD complex were identified as those eliciting a decrease of luminescence relative to DMSO control wells.

The target of data set [5] is T1, KRAS G12C-BRAF complex. As to the kind of experiment: KRAS-BRAF with CYPA (50 nM) interaction assay (TR-FRET), G12C. To be noted: GMPPNP loaded 6His-KRAS, GST-BRAF RBD. In kind it is binding. In a few lines:
(§4)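 Buffer 25 mM HEPES pH 7.4, 100 mM NaCl, 5 mM MgCl2, 10 μM GMPPNP, 0.1% BSA; final 50 nM tagless CYPA, 6.25 nM GMPPNP-loaded 6His-KRAS mutant, 1 nM GST-BRAF RBD. Compounds 16-point 3-fold series from 10 μM, 3 h; anti-6His-XL665/anti-GST-Tb added, 1.5 h; 665/615 nm ratio decrease versus DMSO.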
On the technique in general: Time-resolved FRET reads energy transfer from a long-lived donor to a nearby acceptor.

The target of data set [6] is KRAS G12D binding to BRAF (Homo sapiens (Human), UniProt P01116+P62937, G12D). As to the kind of experiment: KRAS-BRAF with CYPA (50 nM) interaction assay (TR-FRET), G12D. Conditions: GMPPNP loaded 6His-KRAS, GST-BRAF RBD. The method in brief:
as §4

The target in data set [7] is KRAS G12V binding to BRAF (Homo sapiens (Human), UniProt P01116+P62937, G12V). As to the kind of experiment: KRAS-BRAF with CYPA (50 nM) interaction assay (TR-FRET), G12V. Conditions: GMPPNP loaded 6His-KRAS, GST-BRAF RBD. The method in brief:
as §4

Where [8] appears, read: Homo sapiens, SW-620, SW620 cells.
Setting [9] is: Homo sapiens, SW-620, SW620, 72 hours.

T1 sequence (P01116-2 other isoform, or with tags, fused parts or gaps G12C): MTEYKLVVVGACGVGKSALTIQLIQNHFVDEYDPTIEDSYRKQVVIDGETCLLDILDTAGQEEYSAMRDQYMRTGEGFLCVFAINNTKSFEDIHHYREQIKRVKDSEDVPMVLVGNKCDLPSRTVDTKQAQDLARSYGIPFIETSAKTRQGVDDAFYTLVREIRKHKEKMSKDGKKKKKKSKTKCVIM
T1 sequence (P62937 whole entry): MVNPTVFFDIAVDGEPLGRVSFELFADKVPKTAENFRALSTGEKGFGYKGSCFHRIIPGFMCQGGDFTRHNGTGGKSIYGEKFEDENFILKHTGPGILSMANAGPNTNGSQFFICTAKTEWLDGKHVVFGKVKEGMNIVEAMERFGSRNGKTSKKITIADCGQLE
Sequence of KRAS G12D binding to BRAF (P01116-2 other isoform, or with tags, fused parts or gaps G12D): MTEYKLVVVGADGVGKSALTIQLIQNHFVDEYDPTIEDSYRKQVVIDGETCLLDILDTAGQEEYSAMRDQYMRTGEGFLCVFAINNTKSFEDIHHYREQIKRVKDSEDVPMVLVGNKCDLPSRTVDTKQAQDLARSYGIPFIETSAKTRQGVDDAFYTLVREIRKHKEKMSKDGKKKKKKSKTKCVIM
Sequence of KRAS G12D binding to BRAF (P62937 whole entry): as the sequence (P62937 whole entry) above
Sequence of KRAS G12V binding to BRAF (P01116-2 other isoform, or with tags, fused parts or gaps G12V): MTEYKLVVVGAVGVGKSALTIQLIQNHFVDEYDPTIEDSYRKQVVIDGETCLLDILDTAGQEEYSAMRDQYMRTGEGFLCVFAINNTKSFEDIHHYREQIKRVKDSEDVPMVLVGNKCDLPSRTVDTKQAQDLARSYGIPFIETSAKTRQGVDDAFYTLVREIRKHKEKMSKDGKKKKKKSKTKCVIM
Sequence of KRAS G12V binding to BRAF (P62937 whole entry): as the sequence (P62937 whole entry) above

On to `CC(C)[C@@H](C(=O)N[C@H]1Cc2cc(O)cc(c2)-c2ccc3c(C(C)(C)C#N)cn(c3c2)CC(C)(C)COC(=O)[C@@H]2CCCN(N2)C1=O)N1CCCC2(CCN(C(=O)CCl)C2)C1=O` (some centres unmarked) [RM351, reference compound], for which the “conjugation with GSH (in words)” value in data set [1] is recorded as “formed conjugation with GSH”. Also, the half-life – broadly, how long it takes for the measured level to halve – at 1 μM in the data set on GSH is 4.3 h. Besides, the IC50 (in general, the concentration that gives 50% inhibition) was 0.356 µM in [2] (Homo sapiens); over 10 µM with KRAS G12D in AGS cells (Homo sapiens); over 10 µM with KRAS G12V in SW620 (setting [8]); 1.39 µM in the data set with NCI-H358 cells (Homo sapiens); 2.1 µM in the data set on AGS cells (Homo sapiens); 4.81 µM in the data set on SW620 cells (setting [9]). Moreover, the “CL_hep (Human)” value in data set [3] stood at 15.5 mL/min/kg.

For the molecule `CO[C@@H](C)c1ncc(N2CCN(C)CC2)cc1-c1c2c3cc(ccc3n1CC(F)(F)F)-c1csc(n1)C[C@H](NC(=O)[C@H](C(C)C)N1CC[C@]3(CCN(C(=O)[C@H](F)Cl)C3)C1=O)C(=O)N1CCC[C@H](N1)C(=O)OCC(C)(C)C2` [Example 24, (2S)-2-[(5R)-7-[(2R)-2-chloro-2-fluoro-acetyl]-1-oxo-2,7-diazaspiro[4.4]nonan-2-yl]-N-[(7S,13S)-(20M)-20-[2-[(1S)-1-methoxyethyl]-5-(4-methylpiperazin-1-yl)-3-pyridyl]-17,17-dimethyl-8,14-dioxo-21-(2,2,2-trifluoroethyl)-15-oxa-4-thia-9,21,27,28-tetrazapentacyclo[17.5.2.12,5.19,13.022,26]octacosa-1(25),2,5(28),19,22(26),23-hexaen-7-yl]-3-methyl-butanamide], the IC50 on KRAS G12C-BRAF complex [4] is 0.036 µM; against KRAS G12C-BRAF complex [5], 0.021 µM; in data set [6], over 10 µM; in [7], over 10 µM; in [2], 0.002 µM; in the data set with KRAS G12D in AGS cells, 0.065 µM. Moreover, the IC50 in the data set with KRAS G12V in SW620 (SW620 cells) was 0.042 µM; with NCI-H358 cells, under 0.0006 µM; in the data set with AGS cells, 0.886 µM; in the data set with SW620 cells (SW620, 72 hours), 0.489 µM.

For the molecule `CCn1c(-c2cccnc2[C@H](C)OC)c2c3cc(ccc31)-c1cc(O)cc(c1)C[C@H](NC(=O)[C@H](C(C)C)N(C)C(=O)C1CN(C(=O)CCl)C1)C(=O)N1CCC[C@H](N1)C(=O)OCC(C)(C)C2` [RM461, reference compound], the “conjugation with GSH (in words)” value in data set [1] was “formed conjugation with GSH”. The molecule also had a half-life at 1 μM in the data set on GSH of 5 h. The half-maximal inhibitory concentration (IC50) was 0.007 µM in [2] (Homo sapiens); over 10 µM in the data set with KRAS G12D in AGS cells (Homo sapiens); over 10 µM in the data set on KRAS G12V in SW620 (setting [8]); 0.022 µM in the data set with NCI-H358 cells (Homo sapiens); 2.71 µM with AGS cells (Homo sapiens); 4.04 µM in the data set with SW620 cells (setting [9]). The “CL_hep (Human)” value in data set [3] amounted to 16.4 mL/min/kg. In addition, the “Clearance Category” value in data set [3] (human hepatocytes) is “high (CL_hep (mL/min/kg)>16.24 is high clearance)”.
